Columns and labels:
[1] = tested on: Oct3/4-GFP(+) MCF7 cells vs control Oct3/4-GFP(-) MCF cells; assay: Initial small molecule screen in 384 well plates, CellTiter-Blue cell viability; format: cell-based; conditions: 5 μM, 72 hours
Procedure: Experiments were performed to determine whether the growth of Oct3/4-GFP(+) MCF cells could be inhibited with novel small molecules. Oct3/4-GFP(+) MCF7 cells were used as the target population. Control cells consisted of Oct3/4-GFP(−)MCF cells (lacking an Oct3/4-GFP cassette) that were infected with a GFP-expressing lentivirus as a way of controlling for GFP expression. Initial screenings were performed in 384 well plates on triplicate samples as follows.
(§1) First, the cell cultures were prepared by trypsinizing and resuspending the cells in MCF7 culture medium (alpha MEM, 10% FBS, 2 mM Glutamine, 1 mM Sodium Pyruvate, 1 mM non-essential amino acids, 100 U/ml Penicillin/Streptomycin) at a density of 4×10^4/ml. The screen was then performed by (1) diluting compounds to 30 μM using alpha MEM; (2) adding […] of compound-containing solution to each well (which will result in a final concentration of 5 μM); (3) adding 25 μl of cell suspension to each well (1000 cells/well); and (4) incubating the cells with compounds for 72 hours at 37° C., 5% CO2. Cell viability was then assessed using the CellTiter-Blue® assay by Promega, modified as follows. Since there were 30 ul medium in each well, 6 μl CellTiter-Blue was added to each well. The plates were then incubated at 37° C. for 2.5 hours. The plates were then read on a SpectraMax M5 Microplate Reader using the wavelength of excitation 560 nm/emission 590 nm.
(§2) Then, a secondary set of experiments were performed in 12 well plates in which 2000 cells/well were initially seeded and allowed to attach for one day. The following day (day 0), the medium was replaced with fresh medium containing 0.8 μM of each of these three compounds. Cell counts were then performed manually on triplicate wells over a period of three days. Oct3/4-GFP+ MCF7 cells are represented by the lower, dashed curve in all three panels.

Oct3/4-GFP+ MCF7 cells = assay: Secondary growth experiment in 12 well plates, manual cell counts; format: cell-based; conditions: 0.8 μM, cell counts over three days, FIG. 11
Procedure: as §2

[2] = tested on: non-stem cell and Oct3/4-GFP+ CSCs prepared from three breast cancer cell lines, MCF7, MB231 and MB453; assay: LOPAC screen for CSC-specific inhibitory activity; format: cell-based; conditions: CSCs from at least one of MCF7, MB231, MB453; FIG. 14A
Procedure: (§3) FIG. 14A-E. Testing various chemical compounds for CSC-specific inhibitory activity in non-stem MCF7, MDA-MB231 or MDA-MB453 or in Oct3/4-GFP+ CSC cells of those same lines. CSC are denoted by solid circles ([…])_ and non-stem cells are denoted by solid squares (▪).
as §1
(§4) 1280 compounds from the Library of Pharmacologically Active Compounds (“LOPAC”) were screened for activity against non-stem cell and Oct3/4-GFP+ CSCs prepared from three breast cancer cell lines, MCF7, MB231 and MB453 using methods set forth above.

[3] = tested on: MDA-MB231 Oct3/4-GFP+ CSC cells; assay: CSC-specific inhibitory activity test, MDA-MB231; format: cell-based; conditions: 4 μM, FIG. 14B
From the text: as §3, §4

[4] = tested on: MDA-MB453 Oct3/4-GFP+ CSC cells; assay: CSC-specific inhibitory activity test, MDA-MB453; format: cell-based; conditions: 10 nM, FIG. 14D and E
From the text: as §3, §4

[5] = tested on: MCF7 Oct3/4-GFP+ CSC cells; assay: CSC-specific inhibitory activity test, MCF7; format: cell-based; conditions: 7 nM, FIG. 14C
From the text: as §3, §4

[6] = tested on: MCF7 cells and Oct3/4-GFP+MCF7 cells; assay: Hoechst 33342 side population (SP) analysis; format: cell-based; conditions: 20 μM Reserpine; MCF7 and Oct3/4-GFP+MCF7 cells; Hoechst 33342 exclusion
From the text: In other studies, Oct3/4-GFP+MCF7 cells were examined by qRT-PCR for expression of the breast cancer CSC markers CD133 and Oct3/4. After normalizing to GAPDH, the ratios of these transcripts in Oct3/4-GFP+MCF7 cells and non-CSC-MCF7 cells were 6.3 for CD133 and 2.5 for Oct3/4. […] The SP is due to CSCs ability to exclude the dye Hoechst 33342 and reflects high expression of […] transporters such as MDR1 and BRCP (30). […] These fractions could also be reduced by >70% following exposure to 20 μM Reserpine, which inhibits ABC transporters (30). Moreover, the overall mean fluorescence intensity of the entire Oct3/4-GFP+MCF population was two-fold lower than that of the MCF7 population. Thus, based on independent qRT-PCR assessments of CSC gene expression profiles and on uptake/exclusion of Hoechst 33342, one can conclude that the Oct3/4-GFP+MCF7 population consists of highly enriched and stable cells that are unable to differentiate into TACs.

[7] = tested on: MCF7 cells and Oct3/4-GFP+MCF7 CSCs; assay: Differential chemotherapeutic responses, viable adherent cells by trypan blue exclusion; format: cell-based; conditions: number of viable adherent cells over time, triplicate plates
Procedure: FIG. 6. Differential chemotherapeutic responses of MCF7 and Oct3/4-GFP+MCF7 cells. 10^5 unfractionated, MCF7 cells (dotted line) or Oct3/4GFP+MCF7 cells (broken line) were seeded into 6 well plates and allowed to achieve ca. 30-50% confluence. The indicated concentrations of adriamycin, etoposide, 5-fluorouracil, cis-platinum, methotrexate, and taxol were then added (day 0). The total number of viable adherent cells was then determined at the indicated times by trypan blue exclusion. […] Note that in most cases Oct4/4-GFP+MCF7 actually grew in the presence of all agents. These experiments were repeated at least two additional times with similar outcomes.
5. Differential chemosensitivities of Oct3/4-GFP+MCF7 cells. It is believed that CSCs are more resistant to chemotherapeutic agents than TACs, thus at least partly accounting for the propensity of many tumors to relapse after an initial response (12,27,36). To test this idea, MCF7 cells and Oct3/4-GFP+MCF7 CSCs were exposed to six different chemotherapeutic agents commonly employed to treat breast cancer.

[8] = tested on: tumor xenografts from non-stem and CSC MCF7 cells; assay: Effect of topoisomerase I shRNA knockdown on tumor xenografts; format: in vivo; conditions: doxycycline-induced knockdown; xenografts in nude mice; FIG. 21A-B
From the text: FIG. 21A-B. Evaluation of the effect of doxycycline-inducible shRNA targeting topoisomerase I in tumor xenografts generated from (A) non-stem MCF7 cells or (B) Oct3/4-GFP(+) MCF7 CSC cells.
(§5) To test this hypothesis further, small hairpin RNA (shRNA) was used to knockdown topoisomerase I using a conditional shRNA expression system (pTRIPZ vector-Origene, Inc.), in which expression of the shRNA is induced by doxycycline. The shRNA used had the sequence: […] […] (SEQ ID NO:10, NM_003286).

[9] = tested on: non-stem and CSC versions of MCF7, MDA-MB453 and BTL12 cells; assay: Effect of topoisomerase I shRNA knockdown on cultures of non-stem and CSC cells; format: cell-based; conditions: doxycycline-induced, FIG. 20A-C
From the text: FIG. 20A-C. Evaluation of the effect of doxycycline-inducible shRNA targeting topoisomerase I in non-stem MCF7, MDA-MB453 or BTL12 or in Oct3/4-GFP+ CSC cells of those same lines. (A) MCF7. (B) MDA-MB453. (C) BTL12.
as §5

topoisomerase I = assay: Doxycycline-induced shRNA knockdown of topoisomerase I expression (mRNA, Western blot); format: cell-based, human; conditions: FIGS. 17 and 18
From the text: FIG. 17. Topoisomerase I expression in topoisomerase I shRNA-treated cells.
FIG. 18. Western blot analysis of topoisomerase I expression in CSC and non-stem cell versions of MCF7, MDA-MB453, BTL12 and MDA-MB231 cells with or without doxycycline-induced (“dox”) shRNA knockdown.
as §5

Q: Which “selectivity for Oct3/4-GFP(+) MCF7 cells in initial screening” value [1] does the source give for `CCn1cnc2c(Nc3cccc(Cl)c3)nc(N[C@@H]3CCCC[C@@H]3N)nc21.Cl` (relative stereo) [CGP74514A, N2-(cis-2-aminocyclohexyl)-N6-(3-chlorophenyl)-9-ethyl-9H-purine-2,6-diamine hydrochloride] here?
A: The value was “potentially selective agents”.

Q: What about the “selective inhibition of Oct3/4-GFP+ MCF cells” value (Oct3/4-GFP+ MCF7 cells) of the same molecule?
A: The value was “Selective inhibition”.

Q: What does the source list for `Cl.NCC1OC(C23CC4CC(CC(C4)C2)C3)Cc2c1ccc(O)c2O` (stereo not shown) [A77636, 3-(1′-adamantyl)-1-aminomethyl-3,4-dihydro-5,6-dihydroxy-1H-2-benzopyran hydrochloride]?
A: selectivity for Oct3/4-GFP(+) MCF7 cells in initial screening [1]: potentially selective agents; selective inhibition of Oct3/4-GFP+ MCF cells (Oct3/4-GFP+ MCF7 cells): Selective inhibition; selective inhibition of growth of CSCs [2]: selectively inhibited growth of CSCs

Q: Which CSC-selective inhibitory activity [3] does the source give for `O=C1C=C(NCCN2CCOCC2)C(=O)c2ncccc21` [JUN1111] here?
A: The CSC-selective inhibitory activity was “CSC-selective inhibitory activity”.

Q: How did the CSC-selective inhibitory activity [4] turn out when `NC(=S)N/N=C/c1ccc([N+](=O)[O-])s1` [NSC725] was run?
A: Its CSC-selective inhibitory activity is “CSC-selective activity”.

Q: And the CSC-selective inhibitory activity [5]?
A: Its CSC-selective inhibitory activity is “CSC-selective inhibitory activity”.

Q: `Nc1nc(N)c2[nH]cnc2n1` [NSC743] was tested. Which CSC-selective inhibitory activity [4] did it give?
A: The CSC-selective inhibitory activity was “CSC-selective activity”.

Q: Which “reduction of side population (SP) fractions” value [6] does the source give for `COC(=O)[C@H]1[C@H]2C[C@@H]3c4[nH]c5cc(OC)ccc5c4CCN3C[C@H]2C[C@@H](OC(=O)c2cc(OC)c(OC)c(OC)c2)[C@@H]1OC` [Reserpine] here?
A: The value was over 70%.

Q: With `CC(=O)c1c(O)c(C)c(O)c(Cc2c(O)c3c(c(C(=O)/C=C/c4ccccc4)c2O)OC(C)(C)C=C3)c1O` [Rottlerin, (Z)-1-[6-[(3-acetyl-2,4,6-trihydroxy-5-methylphenyl)methyl]-5,7-dihydroxy-2,2-dimethylchromen-8-yl]-3-phenylpro-2-en-1-one] as the molecule, how does the “selectivity for Oct3/4-GFP(+) MCF7 cells in initial screening” value [1] read?
A: Its value is “potentially selective agents”.

Q: And the “selective inhibition of Oct3/4-GFP+ MCF cells” value (Oct3/4-GFP+ MCF7 cells)?
A: Its value is “Selective inhibition”.

Q: And the “selective inhibition of growth of CSCs” value [2]?
A: The value was “selectively inhibited growth of CSCs”.

Q: How did the “sensitivity of Oct3/4-GFP+MCF7 cells relative to MCF7 cells” value [7] turn out when `CC(=O)O[C@H]1C(=O)[C@@]2(C)[C@H]([C@H](OC(=O)c3ccccc3)[C@]3(O)C[C@H](OC(=O)[C@H](O)[C@@H](NC(=O)c4ccccc4)c4ccccc4)C(C)=C1C3(C)C)[C@]1(OC(C)=O)CO[C@@H]1C[C@@H]2O` [taxol] was run?
A: The value was “significantly more sensitive”.

Q: For `CC1(C)CCC2=C(O1)c1ccccc1C(=O)C2=O` [β-lapachone], which “selective inhibition of growth of CSCs” value [2] is on record?
A: Its value is “selectively inhibited growth of CSCs”.

B1: shRNA: doxycycline-inducible small hairpin RNA homologous to the topoisomerase I gene, SEQ ID NO:10, pTRIPZ vector (nucleic acid)
chain: TGCTGTTGACAGTGAGCGCGCTGATTATAAACCTAAGAAATAGTGAAGCCACAGATGTATTTCTTAGGTTTATAATCAGCATGCCTACTGCCTCGGA
Q: For B1, which “reduction in tumor size, CSC-generated vs non-stem tumors” value [8] is on record?
A: Its value is “proportionally greater for the CSC-generated tumors”.

Q: What about the tumor size [8] of the same molecule?
A: The tumor size was “decreased the size of tumors resulting from both non-stem and CSC MCF7 cells”.

Q: And the “effect of knockdown on CSCs relative to non-stem cells (viable cells)” value [9]?
A: Its value is “more profound on CSCs relative to their non-stem cell counterparts”.

Q: And the “topoisomerase I mRNA and protein expression” value (topoisomerase I)?
A: The value was “successfully knocked-down mRNA and protein expression”.
